Reference: patent US9492460B2, “Carbazole compounds useful as bromodomain inhibitors” (Bristol-Myers Squibb Company, priority 2013, dated 2016)

target: T1, bromodomain BRD4 (44-168), BRD4 (333-460), and BRD4 (1-477 or 44-460) (Homo sapiens, UniProt O60885); assay: Time Resolved Fluorescence Resonance Energy Transfer (TR-FRET) binding assay; details: one of the FRET assays described
T1 construct: BRD4(44-168), BRD4(333-460), BRD4(44-460), BRD4(1-477), O60885-1; fused on or other part: N-terminal BirA biotinylation motif, biotinylated; The TVMV-cleavable His6 tag is removed, except in some BRD4(44-460) runs detected with anti-His terbium cryptate

| Compound | IC50 [nM] |
| --- | --- |
| Cc1noc(C)c1-c1ccc2c3cc(C(=O)N4CC(C)OC(C)C4)ccc3n(CCF)c2c1 (centres unmarked) [Example 6] | < 500 |
| CCn1c2ccc(C(=O)N3C[C@@H](C)O[C@@H](C)C3)cc2c2ccc(-c3c(C)noc3C)cc21 [Example 2, 2-(3,5-dimethyl-4-isoxazolyl)-6-((cis-2,6-dimethyl-4-morpholinyl)carbonyl)-9-ethyl-9H-carbazole] | < 500 |
| CCNC(=O)c1cc(-c2c(C)noc2C)cc2c1c1cc(N3CCCOC3=O)ccc1n2Cc1ccc(Cl)cc1 [Example 166, 9-(4-chlorobenzyl)-2-(3,5-dimethyl-4-isoxazolyl)-N-ethyl-6-(2-oxo-1,3-oxazinan-3-yl)-9H-carbazole-4-carboxamide] | < 7500 |
| CCCn1c2ccc(C(=O)N3CC(C)OC(C)C3)cc2c2ccc(-c3c(C)noc3C)cc21 (centres unmarked) [Example 3] | < 500 |
| Cc1noc(C)c1-c1cc(C(N)=O)c2c(c1)[nH]c1ccc(C(=O)N3C[C@@H](C)O[C@@H](C)C3)cc12 [Example 25, 2-(3,5-dimethyl-4-isoxazolyl)-6-((cis-2,6-dimethyl-4-morpholinyl)carbonyl)-9H-carbazole-4-carboxamide] | < 500 |
| Cc1noc(C)c1-c1ccc2c3cc(C(=O)N4CC(C)OC(C)C4)ccc3n(CC(F)F)c2c1 (centres unmarked) [Example 7] | < 500 |
| CNC(=O)c1cc(-c2c(C)noc2C)cc2[nH]c3ccc(C(=O)N4CC(F)(F)C4)cc3c12 [Example 99, 6-((3,3-difluoro-1-azetidinyl)carbonyl)-2-(3,5-dimethyl-4-isoxazolyl)-N-methyl-9H-carbazole-4-carboxamide] | < 500 |
| Cc1noc(C)c1-c1cc(C(N)=O)c2c3cc(C(=O)N4CC(C)OC(C)C4)ccc3n(Cc3ccc(F)cc3F)c2c1 (centres unmarked) [Example 36] | < 50 |
| Cc1noc(C)c1-c1ccc2c3cc(C(=O)N4CC(C)OC(C)C4)ccc3n(Cc3cccc(Cl)c3)c2c1 (centres unmarked) [Example 13] | < 500 |
| Cc1cccc(Cn2c3ccc(C(=O)N4CC(C)OC(C)C4)cc3c3ccc(-c4c(C)noc4C)cc32)c1 (centres unmarked) [Example 20] | < 500 |
| Cc1noc(C)c1-c1cc(C(N)=O)c2c3cc(C(=O)N4CC(C)OC(C)C4)ccc3n(Cc3ncco3)c2c1 (centres unmarked) [Example 29] | < 500 |
| Cc1noc(C)c1-c1cc(C(N)=O)c2c3cc(N4CCOC4=O)ccc3n(C(C)c3ccccc3)c2c1 (centres unmarked) [Example 163, 2-(3,5-dimethyl-4-isoxazolyl)-6-(2-oxo-1,3-oxazolidin-3-yl)-9-(1-phenylethyl)-9H-carbazole-4-carboxamide] | < 50 |
| Cc1noc(C)c1-c1cc(C(N)=O)c2c3ccc(C(C)(C)O)cc3n(C[C@@]3(F)C[C@@H]4CC[C@H]3O4)c2c1 (relative stereo) [Example 225, rel-2-(dimethyl-1,2-oxazol-4-yl)-9-{[(1R,2S,4S)-2-fluoro-7-oxabicyclo[2.2.1]heptan-2-yl]methyl}-7-(2-hydroxypropan-2-yl)-9H-carbazole-4-carboxamide] | < 50 |
| Cc1noc(C)c1-c1cc(C#N)c2c3ccc(C(=O)N4CCOCC4)cc3n(Cc3ccccc3)c2c1 [Example 187, 9-Benzyl-2-(3,5-dimethyl-4-isoxazolyl)-7-(morpholine-4-carbonyl)-9H-carbazole-4-carbonitrile] | < 500 |
| Cc1noc(C)c1-c1cc(C(N)=O)c2c3cc(C(=O)N4CC(F)(F)C4)ccc3n(C(C)c3ccccc3)c2c1 (single isomer, unassigned) [Example 98, 6-((3,3-difluoro-1-azetidinyl)carbonyl)-2-(3,5-dimethyl-4-isoxazolyl)-9-(1-phenylethyl)-9H-carbazole-4-carboxamide] | < 50 |
| Cc1noc(C)c1-c1cc(C(N)=O)c2c3cc(C(=O)N4CCOCC4)ccc3n(Cc3ccccc3)c2c1 [Example 47, 9-benzyl-2-(3,5-dimethyl-4-isoxazolyl)-6-(4-morpholinylcarbonyl)-9H-carbazole-4-carboxamide] | < 50 |
| Cc1noc(C)c1-c1cc(C(=O)NCC(C)C)c2c3cc(C(=O)N4CC(F)C4)ccc3n(Cc3ccc(F)cc3)c2c1 [Example 128, 2-(3,5-dimethyl-4-isoxazolyl)-6-((3-fluoro-1-azetidinyl)carbonyl)-9-(4-fluorobenzyl)-N-isobutyl-9H-carbazole-4-carboxamide] | < 500 |
| Cc1noc(C)c1-c1cc(C(N)=O)c2c3cc(C(=O)N4CC(F)C4)ccc3n(Cc3ccc(Cl)c(F)c3)c2c1 [Example 86] | < 50 |

Other lines, results leading:

| IC50 [nM] | Compound |
| --- | --- |
| < 50 | Cc1noc(C)c1-c1cc(C(N)=O)c2c3cc(NC(=O)C4CCCC4)ccc3n(Cc3ccccc3)c2c1 [Example 149, 9-benzyl-6-((cyclopentylcarbonyl)amino)-2-(3,5-dimethyl-4-isoxazolyl)-9H-carbazole-4-carboxamide] |
| < 50 | Cc1noc(C)c1-c1cc(C(N)=O)c2c3cc(C(=O)N4COCC4(C)C)ccc3n(Cc3ccccc3)c2c1 [Example 77] |
| < 50 | Cc1noc(C)c1-c1cc(C(N)=O)c2c3cc(N)ccc3n(Cc3ccccc3)c2c1 [Example 135, 6-amino-9-benzyl-2-(3,5-dimethyl-4-isoxazolyl)-9H-carbazole-4-carboxamide] |
| < 50 | Cc1noc(C)c1-c1cc(C(N)=O)c2c3cc(C(=O)N4CCCOCC4)ccc3n(Cc3ccccc3)c2c1 [Example 56] |
| < 50 | Cc1noc(C)c1-c1cc(C(N)=O)c2c3ccc(C(C)(C)O)c(F)c3n(C(c3ccc(F)cc3)C3CCOCC3)c2c1 (single isomer, unassigned) [Example 224, 2-(Dimethyl-1,2-oxazol-4-yl)-8-fluoro-9-[(4-fluorophenyl)(oxan-4-yl)methyl]-7-(2-hydroxypropan-2-yl)-9H-carbazole-4-carboxamide] |
| < 50 | Cc1noc(C)c1-c1cc(C(N)=O)c2c3cc(C(=O)N4CC(C)OC(C)C4)ccc3n(Cc3ccc(C#N)cc3)c2c1 (centres unmarked) [Example 37] |
| < 50 | Cc1noc(C)c1-c1cc(C(N)=O)c2c3cc(C(=O)N4CC(C)OC(C)C4)ccc3n(Cc3cccc(Cl)c3)c2c1 (centres unmarked) [Example 34] |
| < 50 | COc1ccc2c(c1)c1c(C(N)=O)cc(-c3c(C)noc3C)cc1n2Cc1ccccc1 [Example 177, 9-benzyl-2-(3,5-dimethyl-4-isoxazolyl)-6-methoxy-9H-carbazole-4-carboxamide] |
| < 50 | COC1CCN(C(=O)c2ccc3c(c2)c2c(C(N)=O)cc(-c4c(C)noc4C)cc2n3Cc2ccccc2)CC1 [Example 70] |
| < 50 | COc1ccccc1Cn1c2ccc(C(=O)N3CCC(F)C3)cc2c2c(C(N)=O)cc(-c3c(C)noc3C)cc21 (centres unmarked) [Example 82] |
| < 50 | Cc1noc(C)c1-c1cc(C(N)=O)c2c3cc(N4CCCOC4=O)ccc3n(Cc3ccccc3)c2c1 [Example 156, 9-benzyl-2-(3,5-dimethyl-4-isoxazolyl)-6-(2-oxo-1,3-oxazinan-3-yl)-9H-carbazole-4-carboxamide] |
| < 50 | Cc1noc(C)c1-c1cc(C(N)=O)c2c3ccc(C(=O)N4CCOCC4)cc3n(Cc3ccccc3)c2c1 [Example 188, 9-Benzyl-2-(3,5-dimethyl-4-isoxazolyl)-7-(morpholine-4-carbonyl)-9H-carbazole-4-carboxamide] |
| < 50 | Cc1noc(C)c1-c1cc(C(N)=O)c2c3cc(C(=O)N4CCC4)ccc3n(Cc3ccccc3)c2c1 [Example 71] |
| < 50 | Cc1noc(C)c1-c1cc(C(N)=O)c2c3cc(C(=O)N4CC(F)C4)ccc3n(CC3CCC3)c2c1 [Example 90] |
| < 50 | Cc1noc(C)c1-c1cc(C(N)=O)c2c3cc(C(=O)N4CC(F)(F)C4)ccc3n(C(C)c3ccccc3)c2c1 (racemic) [Example 96, 6-((3,3-difluoro-1-azetidinyl)carbonyl)-2-(3,5-dimethyl-4-isoxazolyl)-9-(1-phenylethyl)-9H-carbazole-4-carboxamide] |
| < 50 | Cc1noc(C)c1-c1cc(C(N)=O)c2c3cc(C(=O)N4CC[C@@H](F)C4)ccc3n(Cc3ccccc3)c2c1 [Example 60] |
| < 50 | Cc1noc(C)c1-c1cc(C(N)=O)c2c3ccc(C(=O)N4CCOCC4)cc3n(C(c3ccccc3)c3ccccc3)c2c1 [Example 196, 2-(3,5-Dimethyl-4-isoxazolyl)-9-(diphenylmethyl)-7-(4-morpholinylcarbonyl)-9H-carbazole-4-carboxamide] |
| < 50 | Cc1noc(C)c1-c1cc(C(N)=O)c2c3ccc(C(C)(C)O)cc3n(C(c3ccc(F)cc3)C3CCOCC3)c2c1 (single isomer, unassigned) [Example 220, 2-(Dimethyl-1,2-oxazol-4-yl)-9-[(4-fluorophenyl)(oxan-4-yl)methyl]-7-(2-hydroxypropan-2-yl)-9H-carbazole-4-carboxamide] |
| < 50 | CC(=O)N(CCF)c1ccc2c(c1)c1c(C(N)=O)cc(-c3c(C)noc3C)cc1n2Cc1ccccc1 [Example 134, 6-(acetyl(2-fluoroethyl)amino)-9-benzyl-2-(3,5-dimethyl-4-isoxazolyl)-9H-carbazole-4-carboxamide] |
| < 50 | Cc1noc(C)c1-c1cc(C(N)=O)c2c3cc(C(=O)N4CCO[C@@H](C)C4)ccc3n(Cc3ccccc3)c2c1 [Example 57] |
| < 50 | CNC(=O)c1cc(-c2c(C)noc2C)cc2c1c1cc(C(=O)N3CC(F)C3)ccc1n2CC1CCC1 [Example 114] |
| < 50 | COC(=O)c1ccc2c3c(C(N)=O)cc(-c4c(C)noc4C)cc3n(C(c3ccccc3)c3ccccc3)c2c1 [Example 192, Methyl 5-carbamoyl-7-(3,5-dimethyl-4-isoxazolyl)-9-(diphenylmethyl)-9H-carbazole-2-carboxylate] |
| < 50 | CNC(=O)c1cc(-c2c(C)noc2C)cc2c1c1cc(C(=O)N3CC(F)C3)ccc1n2Cc1ccc(Cl)c(F)c1 [Example 109] |
| < 50 | CNC(=O)c1cc(-c2c(C)noc2C)cc2c1c1cc(C(=O)N3CC(F)C3)ccc1n2Cc1ccc(C#N)cc1 [Example 108] |
| < 50 | Cc1noc(C)c1-c1cc(C(N)=O)c2c3cc(C(=O)N4CCC(F)C4)ccc3n(Cc3cccc(F)c3)c2c1 (centres unmarked) [Example 81] |
| < 50 | COc1ccccc1Cn1c2ccc(C(=O)N3CC(C)OC(C)C3)cc2c2c(C(N)=O)cc(-c3c(C)noc3C)cc21 (centres unmarked) [Example 40] |
